# Test results as given in US11040035B2, “3-oxo-2,6-diphenyl-2,3-dihydropyridazine-4-carboxamides” (BAYER PHARMA AKTIENGESELLSCHAFT, priority 2016, dated 2021).
# Like-named read-outs stand apart in the source and are kept apart here.
# Legend:
# [1] = test system: AHR-regulated gene CYP1A1; test: In vitro assay 3: AHR-regulated CYP1A1 expression in human cell line (U937, qPCR)
# Method: In Vitro Assay 3: AHR-Regulated CYP1A1 Expression in Human Cell Line
# To assess the AHR inhibitory activity of the substances described in this application, the ability thereof to antagonise ligand-induced AHR gene regulation in a dose-dependent manner was quantified. For this purpose, quantitative PCR analysis was used to determine expression of the AHR-regulated gene CYP1A1 in a human monocytic U937 cell line upon stimulation with 200 μM KA in the presence and absence of AHR inhibitor. U937 cells were sown at a concentration of 2×10^5 cells/well in 100 ul of growth medium (RPMI 1640, 20% FCS) in 96-well microtitre plates. CYP1A1 expression was induced with 200 μM KA (positive control) in the presence or absence of the substances for 6 hours. Human U937 cells were typically incubated with eight different concentrations of the substances (1 nM, 3 nM, 10 nM, 30 nM, 100 nM, 300 nM, 1 μM and 3 μM) and analyzed in duplicate on the same microtitre plate. After stimulation, cells were lysed with Nucleic Acid Lysis Solution (#4305895, Applied Biosystems) and RNA was isolated using the 6100 Nucleic Acid Preparation Station (Applied Biosystems) and reverse-transcribed to cDNA using SuperScript VILO cDNA synthesis kit (#11754-250, Invitrogen). Unstimulated cells were used as the negative control. Taqman probes for human CYP1A1 (Hs01054797_g1) and human HPRT (Hs02800695_m1) were used to analyze fold expression of CYP1A1 of HPRT. Quantitation was performed on a Taqman SDS7900HT.
# AHR [2] = target: T1, AHR (Homo sapiens, UniProt P35869); test: In vitro assay 1: antagonism in human cell line (transactivation assay, kynurenic acid prestimulated); conditions: Assay 1: AHR-luc Hum Antagonism IC50 [M], 150 μM kynurenic acid, 20 hours, firefly luciferase
# T1 sequence (P35869 11-848): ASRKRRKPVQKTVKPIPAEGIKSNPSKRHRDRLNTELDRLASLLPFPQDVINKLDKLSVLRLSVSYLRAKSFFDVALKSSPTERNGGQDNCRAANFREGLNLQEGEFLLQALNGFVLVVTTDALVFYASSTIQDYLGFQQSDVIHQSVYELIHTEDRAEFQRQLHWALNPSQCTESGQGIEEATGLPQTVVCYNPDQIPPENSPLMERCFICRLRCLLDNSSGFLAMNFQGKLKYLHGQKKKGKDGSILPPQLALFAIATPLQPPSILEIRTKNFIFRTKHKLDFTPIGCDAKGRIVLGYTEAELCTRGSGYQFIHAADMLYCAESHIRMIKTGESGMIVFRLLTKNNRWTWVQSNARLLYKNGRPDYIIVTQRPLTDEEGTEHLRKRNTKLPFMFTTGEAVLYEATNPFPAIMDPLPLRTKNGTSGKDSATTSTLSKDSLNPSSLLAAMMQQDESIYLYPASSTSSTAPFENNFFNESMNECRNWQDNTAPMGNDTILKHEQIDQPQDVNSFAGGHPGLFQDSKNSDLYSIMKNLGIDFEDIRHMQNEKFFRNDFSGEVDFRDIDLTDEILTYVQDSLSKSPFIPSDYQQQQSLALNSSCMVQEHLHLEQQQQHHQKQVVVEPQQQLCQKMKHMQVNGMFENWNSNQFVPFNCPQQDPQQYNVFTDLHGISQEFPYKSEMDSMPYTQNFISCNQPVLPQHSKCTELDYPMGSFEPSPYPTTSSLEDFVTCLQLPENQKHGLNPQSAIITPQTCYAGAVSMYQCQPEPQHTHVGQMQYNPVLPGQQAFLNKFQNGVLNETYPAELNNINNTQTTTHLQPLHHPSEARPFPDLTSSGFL
# AHR [3] = target: T1, AHR; test: In vitro assay 2: agonism in human cell line (transactivation assay)
# [4] = Homo sapiens, U-937, 6 h, read-out: Assay 3: Hum CYP1A1 Antagonism IC50 [M], U937 cells, 200 μM KA, 6 hours, qPCR
# [5] = Assay 2: AHR-luc Hum Agonism IC50 [M], no kynurenic acid, 20 hours, firefly luciferase
# [6] = read-out: Assay 3: Hum CYP1A1 Antagonism IC50, U937 cells, 200 μM KA, 6 hours, qPCR
# [7] = read-out: Assay 2: AHR-luc Hum Agonism IC50, no kynurenic acid, 20 hours, firefly luciferase
Compound,"IC50 [1, 4] [M]",IC50 (AHR [2]) [M],IC50 (AHR [3]; [5]) [M],"IC50 [1, 6] [M]",IC50 (AHR [3]; [7]) [M]
"O=C(N[C@H]1CC[C@@H]1O)c1cc(-c2ccc(Cl)cc2)nn(-c2cccc(F)c2)c1=O (racemic) [Example 348, 6-(4-chlorophenyl)-2-(3-fluorophenyl)-N-(trans-2-hydroxycyclobutyl)-3-oxo-2,3-dihydropyridazine-4-carboxamide]",1.37e-07,5.11e-08,> 2e-05,–,–
"N#CC(CO)NC(=O)c1cc(-c2ccc(Cl)cc2)nn(-c2cccc(F)c2)c1=O (racemic) [Example 371, 6-(4-chlorophenyl)-N-[(1RS)-1-cyano-2-hydroxyethyl]-2-(3-fluorophenyl)-3-oxo-2,3-dihydropyridazine-4-carboxamide]",5.69e-08,1.63e-08,> 2e-05,–,–
"O=C(N[C@@H]1CCCC[C@@H]1O)c1cc(-c2ccc(Cl)cc2)nn(-c2cccc(F)c2)c1=O (relative stereo) [Example 103, 6-(4-Chlorophenyl)-2-(3-fluorophenyl)-N-(cis-2-hydroxycyclohexyl)-3-oxo-2,3-dihydropyridazine-4-carboxamide]",4.47e-09,1.59e-08,> 2e-05,–,–
"COc1ccc(-c2cc(C(=O)N[C@@H](C)[C@H](C)O)c(=O)n(-c3cccc(F)c3)n2)cc1 (relative stereo) [Example 116, rel-2-(3-Fluorophenyl)-N-[(2S,3S)-3-hydroxybutan-2-yl]-6-(4-methoxyphenyl)-3-oxo-2,3-dihydropyridazine-4-carboxamide]",9.69e-08,2.9e-08,> 2e-05,–,–
"O=C(N[C@H]1CCC[C@@H]1O)c1cc(-c2ccc(Cl)cc2)nn(-c2cccc(F)c2)c1=O (relative stereo) [Example 123, 6-(4-Chlorophenyl)-2-(3-fluorophenyl)-N-(trans-2-hydroxycyclopentyl)-3-oxo-2,3-dihydropyridazine-4-carboxamide]",9.77e-08,3.63e-08,> 2e-05,–,–
O=C(N[C@@H]1CC[C@@H]1O)c1cc(-c2ccc(Cl)cc2)nn(-c2cccc(F)c2)c1=O (relative stereo) [Example 357],2.7e-08,2.13e-08,> 2e-05,–,–
"O=C(NCC(O)C(F)(F)F)c1cc(-c2ccc(Cl)cc2)nn(-c2cccc(F)c2)c1=O (single isomer, unassigned) [Example 26, 6-(4-Chlorophenyl)-2-(3-fluorophenyl)-3-oxo-N-(3,3,3-trifluoro-2-hydroxypropyl)-2,3-dihydropyridazine-4-carboxamide]",–,1.84e-08,> 2e-05,3.52e-08,–
"O=C(NCC(O)C(F)(F)F)c1cc(-c2ccc(Cl)cc2)nn(-c2cccc(F)c2)c1=O (single isomer, unassigned) [Example 27, 6-(4-Chlorophenyl)-2-(3-fluorophenyl)-3-oxo-N-(3,3,3-trifluoro-2-hydroxypropyl)-2,3-dihydropyridazine-4-carboxamide]",–,1.06e-07,–,2.44e-07,> 2e-05
"CC(C)C(O)CNC(=O)c1cc(-c2ccc(Cl)cc2)nn(-c2cccc(F)c2)c1=O (single isomer, unassigned) [Example 29, 6-(4-Chlorophenyl)-2-(3-fluorophenyl)-N-(2-hydroxy-3-methylbutyl]-3-oxo-2,3-dihydropyridazine-4-carboxamide]",1.55e-07,9.15e-08,> 2e-05,–,–
"CC(C)C(O)CNC(=O)c1cc(-c2ccc(Cl)cc2)nn(-c2cccc(F)c2)c1=O (single isomer, unassigned) [Example 30, 6-(4-Chlorophenyl)-2-(3-fluorophenyl)-N-(2-hydroxy-3-methylbutyl]-3-oxo-2,3-dihydropyridazine-4-carboxamide]",–,1.33e-07,–,1.77e-07,> 2e-05
"O=C(NCC(O)C(F)(F)F)c1cc(-c2ccc(Cl)cc2)nn(-c2cc(F)cc(F)c2)c1=O (single isomer, unassigned) [Example 45, 6-(4-Chlorophenyl)-2-(3,5-difluorophenyl)-3-oxo-N-(3,3,3-trifluoro-2-hydroxypropyl)-2,3-dihydropyridazine-4-carboxamide]",1.18e-08,1.02e-08,> 2e-05,–,–
"CC(C)C(O)CNC(=O)c1cc(-c2ccc(Cl)cc2)nn(-c2cc(F)cc(F)c2)c1=O (single isomer, unassigned) [Example 49, 6-(4-Chlorophenyl)-2-(3,5-difluorophenyl)-N-(2-hydroxy-3-methylbutyl)-3-oxo-2,3-dihydropyridazine-4-carboxamide]",–,3.42e-08,> 2e-05,4.92e-08,–
"CC(C)C(O)CNC(=O)c1cc(-c2ccc(Cl)cc2)nn(-c2cc(F)cc(F)c2)c1=O (single isomer, unassigned) [Example 50, 6-(4-Chlorophenyl)-2-(3,5-difluorophenyl)-N-(2-hydroxy-3-methylbutyl)-3-oxo-2,3-dihydropyridazine-4-carboxamide]",–,5.8e-08,–,1.51e-07,> 2e-05
"Cc1ccc(-c2cc(C(=O)NCC(O)C(C)C)c(=O)n(-c3cc(F)cc(F)c3)n2)cc1 (single isomer, unassigned) [Example 57, 2-(3,5-Difluorophenyl)-N-(2-hydroxy-3-methylbutyl)-6-(4-methylphenyl)-3-oxo-2,3-dihydropyridazine-4-carboxamide]",–,3.49e-08,> 2e-05,3.83e-08,–
"Cc1ccc(-c2cc(C(=O)NCC(O)C(C)C)c(=O)n(-c3cc(F)cc(F)c3)n2)cc1 (single isomer, unassigned) [Example 58, 2-(3,5-Difluorophenyl)-N-(2-hydroxy-3-methylbutyl)-6-(4-methylphenyl)-3-oxo-2,3-dihydropyridazine-4-carboxamide]",–,4.28e-08,–,1.34e-07,> 2e-05
"O=C(NCC(O)C(F)(F)F)c1cc(-c2ccc(C(F)F)cc2)nn(-c2cccc(F)c2)c1=O (single isomer, unassigned) [Example 95, 6-[4-(Difluoromethyl)phenyl]-2-(3-fluorophenyl)-3-oxo-N-(3,3,3-trifluoro-2-hydroxypropyl)-2,3-dihydropyridazine-4-carboxamide]",–,6.77e-09,> 2e-05,7.63e-09,–
"O=C(NCC(O)C(F)(F)F)c1cc(-c2ccc(C(F)F)cc2)nn(-c2cccc(F)c2)c1=O (single isomer, unassigned) [Example 96, 6-[4-(Difluoromethyl)phenyl]-2-(3-fluorophenyl)-3-oxo-N-(3,3,3-trifluoro-2-hydroxypropyl)-2,3-dihydropyridazine-4-carboxamide]",–,2.92e-08,–,4.03e-08,> 2e-05
"COc1ccc(-c2cc(C(=O)NC(CO)C(F)(F)F)c(=O)n(-c3cccc(F)c3)n2)cc1 (single isomer, unassigned) [Example 101, 2-(3-fluorophenyl)-6-(4-methoxyphenyl)-3-oxo-N-(1,1,1-trifluoro-3-hydroxypropan-2-yl)-2,3-dihydropyridazine-4-carboxamide]",–,1.24e-08,> 2e-05,1.88e-08,–
"COc1ccc(-c2cc(C(=O)NC(CO)C(F)(F)F)c(=O)n(-c3cccc(F)c3)n2)cc1 (single isomer, unassigned) [Example 102, 2-(3-Fluorophenyl)-6-(4-methoxyphenyl)-3-oxo-N-(1,1,1-trifluoro-3-hydroxypropan-2-yl)-2,3-dihydropyridazine-4-carboxamide]",–,4.22e-08,–,4.37e-08,> 2e-05
"O=C(N[C@@H]1CCCC[C@@H]1O)c1cc(-c2ccc(Cl)cc2)nn(-c2cccc(F)c2)c1=O (single isomer, unassigned) [Example 104, 6-(4-Chlorophenyl)-2-(3-fluorophenyl)-N-(cis-2-hydroxycyclohexyl)-3-oxo-2,3-dihydropyridazine-4-carboxamide]",1.64e-08,1.57e-08,> 2e-05,–,–
"COc1ccc(-c2cc(C(=O)N[C@@H]3CCCC[C@@H]3O)c(=O)n(-c3cccc(F)c3)n2)cc1 (single isomer, unassigned) [Example 107, 2-(3-Fluorophenyl)-N-(cis-2-hydroxycyclohexyl)-6-(4-methoxyphenyl)-3-oxo-2,3-dihydropyridazine-4-carboxamide]",1.83e-08,1.76e-08,> 2e-05,–,–
